Results as given in US20070020140A1, “Decontamination of biological microbes using metal cations suspended in ethanol” (priority 2005, published 2007).

Assays:
Bacillus cereus spores = test: Assay to quantify spore kills, wet-prepared Bc spores (section 2); type: cell-based, B. cereus RSVF1, ATCC 4342; conditions: FIG. 5
[1] = test system: Bacillus atrophaeus subspecies globigii spores; test: Assay to quantify spore kills, dry-prepared Bg spores (section 2); type: cell-based; conditions: 0.5 M, 15 minutes at 25° C., FIG. 4
[2] = test system: B. atrophaeus subspecies globigii spores; type: cell-based, Bacillus atrophaeus subspecies globigii; conditions: 0.5 M in water
Description: Dry-prepared spores of non-pathogenic B. atrophaeus subspecies globigii (B. globigii or Bg) were prepared at the Army's Dugway Proving Ground to mimic a bio-weapon, and they are used for bio-weapons studies, including the following experiments. The assay for decontamination experiments was performed with 3-4 replicates and many experiments were reproduced numerous times. The assay included the steps of (1) suspending Bg spores in the appropriate solvent (water or ethanol) at a concentration of 2 mg spores/ml (approximately 2×10^8 spores/ml) with starting volume of over 1 ml of spores at 2 mg/ml; (2) removing 3 or 4 spore aliquots of 50 ul per aliquot with each aliquot serially diluted in 1x PBS and plated on Luria-Bertani (LB) or Tryptic Soy (TSA) agar plates (this is a control step that gave the spore titer or colony-forming units (CFUs) at Time=0 minutes (T0)); (3) placing the appropriate decontamination solution (2x concentration) aliquoted into each of 3 or 4 eppendorf tubes with 200 ul per tube and then 200 ul of spores were added and mixed to give a final concentration of 1x decontamination solution and 1 mg spores/ml; (4) the spores in decontamination solution were then mixed and incubated for specific time periods and temperatures. A typical incubation was in a room temperature (25° C.) water bath for 30 (or 60) minutes (no agitation was performed during the incubation period in order to mimic real world situations); (5) aliquots of spores from the 3 or 4 replicates were removed after 30 (or 60) minutes with the aliquots serially diluted in 1x PBS and plated on LB or TSA agar plates which gave a CFU at Time=30 minutes (T30) (the titer of live spores after the decontamination test); (6) after removing the aliquots at the 30-minute time point, some test samples were then immediately incubated in a 70° C. water bath for another 30 minutes, the samples were then serially diluted and plated on to LB agar plates to determine the titer after the 70° C. incubation.

[3] = 0.5 M in 50%, 75% and 90% ethanol, 15 minutes at 25° C.
[4] = 60 minutes at 25° C., ten out of the thirteen experiments
[5] = additional 30 minutes at 70° C., pH-neutralized to pH 7-8, all 11 experiments

## O.O.[Ca+2].[Cl-].[Cl-] [Ca^+2, CaCl2-2H2O]
Bacillus cereus spores; 0.5 M in water, 25%, 50%, 75% or 90% ethanol, 15 minutes at 25° C.
  effect on Bc spores: no affect
[1]; regardless of the solvent (water, 25-90% ethanol)
  effect on Bg spores: no affect

## [Cl][Cu][Cl] [Cu^+2, copper chloride]
Bacillus cereus spores; [3]
  activity against Bc spores: strong activity
[1]; in 50%, 75% and 90% ethanol
  activity against Bg spores: strongest activity
[2]; [4]
  log spore kill: > 1 log
  spore kills: greater than 92%
[2]; [5]
  kill of spores: 100%
  logs of kill: > 7 logs

## O.O.O.O.O.O.[Cl-].[Cl-].[Cl-].[Fe+3] [Fe^+3, FeCl3·6H2O]
Bacillus cereus spores; [3]
  CFU reduction (logs): greater than three logs
  CFU reduction (percent): > 99.9%
Bacillus cereus spores; 0.5 M in water, within 15 minutes
  CFU reduced relative to the control: less than half a log
[1]; in water and at any ethanol concentration
  CFU reduction: greater than three logs

## [Cl-].[Cl-].[Zn+2] [Zn^+2, ZnCl2]
Bacillus cereus spores; 0.5 M in 50% and 75% ethanol, 15 minutes at 25° C.
  activity against Bc spores: slight activity
[1]; in 50% ethanol
  CFU reduction: greater than two logs
